These results are taken from US20230123334A1, “AMINO LIPID COMPOUND, PREPARATION METHOD THEREFOR, AND APPLICATION THEREOF” (SHENZHEN SHENXIN BIOTECHNOLOGY CO., LTD., priority 2020, published 2023).

The subject of the first assay is Hela cells. Briefly: Transfection of Hela cell line, mRNA vectors. The class given is cell-based. To be noted: 50 ng EGFP mRNA per well. Put shortly: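 Transfection efficiency was scored as GFP-fluorescent cells over Hoechst-stained total nuclei, with Lipofectamine2000 as reference reagent. Each well of HeLa cells, grown in DMEM plus 10% FBS, received 50 ng EGFP mRNA.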
Turning to `CCCCCCCCCCCCNc1nc(NCCN2CCCC2)nc(SCCCCCCCC)n1` [Compound S8N12D3], the “Absolute mRNA transfection efficiency in Hela cells” value was 8.9%.

For `CCCCCCCCCCCCNc1nc(NCCN2CCN(C)CC2)nc(SCCCCCCCC)n1` [Compound S8N12D5], the “Absolute mRNA transfection efficiency in Hela cells” value is on record as 20.8%.

As to `CCCCCCCCCCCCNc1nc(NCCCN(C)C)nc(SCCCCCCCC)n1` [Compound S8N12D6], the “Absolute mRNA transfection efficiency in Hela cells” value was determined as 39.3%.

In the case of `CCCCCCCCCCCCNc1nc(NCCCN2CCOCC2)nc(SCCCCCCCC)n1` [Compound S8N12D8], the “Absolute mRNA transfection efficiency in Hela cells” value was 8.4%.

`CCCCCCCCCCCCNc1nc(NCCCN2CCN(C)CC2)nc(SCCCCCCCC)n1` [Compound S8N12D9]: the “Absolute mRNA transfection efficiency in Hela cells” value was 24.1%.

As for `CCCCCCCCCCCCNc1nc(NCC2CCN(C)CC2)nc(SCCCCCCCC)n1` [Compound S8N12D10], the “Absolute mRNA transfection efficiency in Hela cells” value is listed as 22.6%.

Turning to `CCCCCCCCCCCCCNc1nc(NCCN2CCCC2)nc(SCCCCCCCC)n1` [Compound S8N13D3], the “Absolute mRNA transfection efficiency in Hela cells” value is reported as 15.7%.

Take `CCCCCCCCCCCCCNc1nc(NCCN2CCN(C)CC2)nc(SCCCCCCCC)n1` [Compound S8N13D5]: the “Absolute mRNA transfection efficiency in Hela cells” value is 14.7%.

Regarding `CCCCCCCCCCCCCNc1nc(NCCCN(C)C)nc(SCCCCCCCC)n1` [Compound S8N13D6], the “Absolute mRNA transfection efficiency in Hela cells” value turned out to be 27.6%.

`CCCCCCCCCCCCCNc1nc(NCCCN2CCOCC2)nc(SCCCCCCCC)n1` [Compound S8N13D8]: the “Absolute mRNA transfection efficiency in Hela cells” value was 6.6%.

As for `CCCCCCCCCCCCCCCCSc1nc(NCCN2CCCCC2)nc(SCCCCCCCCC)n1` [Compound S9S16D4], the “Absolute mRNA transfection efficiency in Hela cells” value is 6.2%.

Consider `CCCCCCCCCCCCCCCCSc1nc(NCCN(CC)CC)nc(SCCCCCCCCC)n1` [Compound S9S16D7], for which the “Absolute mRNA transfection efficiency in Hela cells” value is 4.2%.

The subject of the next assay is HEK293 cells. The assay is described as follows: Preliminary screening as mRNA vectors, EGFP mRNA transfection of HEK293 cells. The class given is cell-based. To be noted: HEK293 cells, 96-well plates, EGFP mRNA 50 ng per well; percentage of GFP fluorescent cells relative to total number of cells (Hoechst). The gist of the method:
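HEK293 cells in DMEM plus 10% FBS transfected in 96-well format with 50 ng EGFP mRNA per well; Lipofectamine2000 served as positive control. Read-out is the percentage of GFP-fluorescent cells among total cells, counted by Hoechst nuclear stain.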
`CCCCCCCCCCCCCCCCSc1nc(NCCN2CCCCC2)nc(SCCCCCCCCC)n1` [Compound S9S16D4]: the “Absolute mRNA transfection efficiency in HEK293 cells” value is recorded as 1.2%.

Take `CCCCCCCCCCCCCCCCSc1nc(NCCN(CC)CC)nc(SCCCCCCCCC)n1` [Compound S9S16D7]: the “Absolute mRNA transfection efficiency in HEK293 cells” value is recorded as 1.8%.

The subject of another assay is MCF7 cells. Briefly: Transfection of MCF7 cell line, mRNA vectors. The class given is cell-based. To be noted: 50 ng EGFP mRNA per well. The protocol:
(§1) Cell line: MCF7 cells (ATCC HTB-22)
Medium: DMEM supplemented with 10 fetal bovine serum (Invitrogen)
(§2) Screening: cell transfection on 96-well plates
Detection (readout): percentage of the number of GFP fluorescent cells relative to the total number of cells (the total number of cells was determined using nucleus dye Hoechst). Lipofectamine2000 (Invitrogen) was used as the positive control.
Method: the experimental method was basically the same with Example 4, and the mass of EGFP mRNA (TriLink) for transfection was 50 ng per well.
Turning to `CCCCCCCCCCCCNc1nc(NCCN2CCCC2)nc(SCCCCCCCC)n1` [Compound S8N12D3], the “Absolute mRNA transfection efficiency in MCF7 cells” value turned out to be 20.7%.

For the compound `CCCCCCCCCCCCNc1nc(NCCN2CCN(C)CC2)nc(SCCCCCCCC)n1` [Compound S8N12D5], the “Absolute mRNA transfection efficiency in MCF7 cells” value is reported as 19.7%.

`CCCCCCCCCCCCNc1nc(NCCCN(C)C)nc(SCCCCCCCC)n1` [Compound S8N12D6]: the “Absolute mRNA transfection efficiency in MCF7 cells” value is 22.5%.

Take `CCCCCCCCCCCCNc1nc(NCCCN2CCOCC2)nc(SCCCCCCCC)n1` [Compound S8N12D8]: the “Absolute mRNA transfection efficiency in MCF7 cells” value came to 0.3%.

On to `CCCCCCCCCCCCNc1nc(NCCCN2CCN(C)CC2)nc(SCCCCCCCC)n1` [Compound S8N12D9], for which the “Absolute mRNA transfection efficiency in MCF7 cells” value came out at 16.4%.

As to `CCCCCCCCCCCCNc1nc(NCC2CCN(C)CC2)nc(SCCCCCCCC)n1` [Compound S8N12D10], the “Absolute mRNA transfection efficiency in MCF7 cells” value was 23.1%.

For the compound `CCCCCCCCCCCCCNc1nc(NCCN2CCCC2)nc(SCCCCCCCC)n1` [Compound S8N13D3], the “Absolute mRNA transfection efficiency in MCF7 cells” value amounted to 18.1%.

For `CCCCCCCCCCCCCNc1nc(NCCN2CCN(C)CC2)nc(SCCCCCCCC)n1` [Compound S8N13D5], the “Absolute mRNA transfection efficiency in MCF7 cells” value stood at 9.2%.

`CCCCCCCCCCCCCNc1nc(NCCCN(C)C)nc(SCCCCCCCC)n1` [Compound S8N13D6]: the “Absolute mRNA transfection efficiency in MCF7 cells” value was found to be 33.4%.

For `CCCCCCCCCCCCCNc1nc(NCCCN2CCOCC2)nc(SCCCCCCCC)n1` [Compound S8N13D8], the “Absolute mRNA transfection efficiency in MCF7 cells” value is 0.4%.

Another assay deals with Hela cells. Briefly: Transfection of Hela cell line, DNA vectors. The class given is cell-based. To be noted: 75 ng plasmid DNA, GFP cells / total cells. The gist of the method:
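Amino lipid/DOPE liposomes in sodium acetate pH 5.6 were complexed with 75 ng psin-EGFP-IRES-Puro plasmid for 30 min at room temperature, then mixed with 3-5×10^4 Hela cells in DMEM/10% FBS at 37° C. Hoechst stain after 20-24 h, imaging after a further 20-24 h. Efficiency = GFP-positive cells / total nuclei.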
Regarding `CCCCCCCCCCCCNc1nc(NCCN2CCCC2)nc(SCCCCCCCC)n1` [Compound S8N12D3], the “Absolute DNA transfection efficiency in Hela cells” value was found to be 8.8%.

For the compound `CCCCCCCCCCCCNc1nc(NCCN2CCN(C)CC2)nc(SCCCCCCCC)n1` [Compound S8N12D5], the “Absolute DNA transfection efficiency in Hela cells” value came to 20.8%.

On to `CCCCCCCCCCCCNc1nc(NCCCN(C)C)nc(SCCCCCCCC)n1` [Compound S8N12D6], for which the “Absolute DNA transfection efficiency in Hela cells” value worked out at 39.3%.

As for `CCCCCCCCCCCCNc1nc(NCCCN2CCOCC2)nc(SCCCCCCCC)n1` [Compound S8N12D8], the “Absolute DNA transfection efficiency in Hela cells” value is reported as 8.4%.

Regarding `CCCCCCCCCCCCNc1nc(NCCCN2CCN(C)CC2)nc(SCCCCCCCC)n1` [Compound S8N12D9], the “Absolute DNA transfection efficiency in Hela cells” value is reported as 24.4%.

Regarding `CCCCCCCCCCCCNc1nc(NCC2CCN(C)CC2)nc(SCCCCCCCC)n1` [Compound S8N12D10], the “Absolute DNA transfection efficiency in Hela cells” value came out at 22.6%.

In the case of `CCCCCCCCCCCCCNc1nc(NCCN2CCCC2)nc(SCCCCCCCC)n1` [Compound S8N13D3], the “Absolute DNA transfection efficiency in Hela cells” value is 15.7%.

Turning to `CCCCCCCCCCCCCNc1nc(NCCN2CCN(C)CC2)nc(SCCCCCCCC)n1` [Compound S8N13D5], the “Absolute DNA transfection efficiency in Hela cells” value worked out at 14.7%.

As for `CCCCCCCCCCCCCNc1nc(NCCCN(C)C)nc(SCCCCCCCC)n1` [Compound S8N13D6], the “Absolute DNA transfection efficiency in Hela cells” value turned out to be 27.6%.

For `CCCCCCCCCCCCCNc1nc(NCCCN2CCOCC2)nc(SCCCCCCCC)n1` [Compound S8N13D8], the “Absolute DNA transfection efficiency in Hela cells” value was found to be 6.6%.

Consider `CCCCCCCCCCCCCCCCSc1nc(NCCN2CCCCC2)nc(SCCCCCCCCC)n1` [Compound S9S16D4], for which the “Absolute DNA transfection efficiency in Hela cells” value came out at 6.2%.

In the case of `CCCCCCCCCCCCCCCCSc1nc(NCCN(CC)CC)nc(SCCCCCCCCC)n1` [Compound S9S16D7], the “Absolute DNA transfection efficiency in Hela cells” value is on record as 4.2%.

For the next assay, the system named is HEK293 cells. The assay is described as follows: Preliminary screening as DNA vectors, GFP transfection of HEK293 cells. To be noted: HEK293 cells; lipid/DOPE liposome with 75 ng plasmid DNA (psin-EGFP-IRES-Puro); number of cells expressing GFP divided by total number of nuclei (Hoechst). The class given is cell-based. The gist of the method: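 HEK293 cells in DMEM/10% FBS transfected with 75 ng EGFP plasmid per well complexed with amino lipid/DOPE liposomes in pH 5.6 sodium acetate. Hoechst nuclear stain added 20-24 h post-transfection, then cells cultured another 20-24 h. Confocal imaging gives GFP-positive cells as % of total nuclei.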
Regarding `CCCCCCCCCCCCCCCCSc1nc(NCCN2CCCCC2)nc(SCCCCCCCCC)n1` [Compound S9S16D4], the “Absolute DNA transfection efficiency in HEK293 cells” value came out at 12.2%.

As for `CCCCCCCCCCCCCCCCSc1nc(NCCN(CC)CC)nc(SCCCCCCCCC)n1` [Compound S9S16D7], the “Absolute DNA transfection efficiency in HEK293 cells” value was 8.4%.

The subject of another assay is MCF7 cells. The assay is described as follows: Transfection of MCF7 cell line, DNA vectors. More on the design: concentration or dose not given beside the values. The class given is cell-based. To be noted: plasmid DNA, GFP cells / total cells. Here is the method: as §1
Medium DMEM supplemented with […] fetal bovine serum
as §2
Detection (readout): percentage of the number of GFP fluorescent cells relative to the total number of cells (the total number of cells was determined using nucleus dye Hoechst). Lipofectamine2000 was used as the positive control, according to the manufacturer's instructions.
Method: the experimental method was basically the same with Example 4.
In the case of `CCCCCCCCCCCCNc1nc(NCCN2CCCC2)nc(SCCCCCCCC)n1` [Compound S8N12D3], the “Absolute DNA transfection efficiency in MCF7 cells” value was found to be 13.7%.

With `CCCCCCCCCCCCNc1nc(NCCN2CCN(C)CC2)nc(SCCCCCCCC)n1` [Compound S8N12D5], the “Absolute DNA transfection efficiency in MCF7 cells” value is listed as 29.2%.

Take `CCCCCCCCCCCCNc1nc(NCCCN(C)C)nc(SCCCCCCCC)n1` [Compound S8N12D6]: the “Absolute DNA transfection efficiency in MCF7 cells” value is listed as 25.5%.

For the compound `CCCCCCCCCCCCNc1nc(NCCCN2CCOCC2)nc(SCCCCCCCC)n1` [Compound S8N12D8], the “Absolute DNA transfection efficiency in MCF7 cells” value was 2.1%.

`CCCCCCCCCCCCNc1nc(NCCCN2CCN(C)CC2)nc(SCCCCCCCC)n1` [Compound S8N12D9]: the “Absolute DNA transfection efficiency in MCF7 cells” value stood at 32.0%.

`CCCCCCCCCCCCNc1nc(NCC2CCN(C)CC2)nc(SCCCCCCCC)n1` [Compound S8N12D10]: the “Absolute DNA transfection efficiency in MCF7 cells” value stood at 40.6%.

On to `CCCCCCCCCCCCCNc1nc(NCCN2CCCC2)nc(SCCCCCCCC)n1` [Compound S8N13D3], for which the “Absolute DNA transfection efficiency in MCF7 cells” value came to 19.9%.

Turning to `CCCCCCCCCCCCCNc1nc(NCCN2CCN(C)CC2)nc(SCCCCCCCC)n1` [Compound S8N13D5], the “Absolute DNA transfection efficiency in MCF7 cells” value came to 24.5%.

For the compound `CCCCCCCCCCCCCNc1nc(NCCCN(C)C)nc(SCCCCCCCC)n1` [Compound S8N13D6], the “Absolute DNA transfection efficiency in MCF7 cells” value is 32.2%.

For `CCCCCCCCCCCCCNc1nc(NCCCN2CCOCC2)nc(SCCCCCCCC)n1` [Compound S8N13D8], the “Absolute DNA transfection efficiency in MCF7 cells” value was 0.9%.
